According to US10294229B2, “Heteroaryl substituted aminopyridine compounds” (BRISTOL-MYERS SQUIBB COMPANY, priority 2015, dated 2019):

Key:
[1] = target: IRAK4 (Homo sapiens (Human), UniProt Q9NWZ3); assay: IRAK4 Inhibition Assay; type: biochemical; conditions: ATP 500 μM; IRAK4 0.6 nM
Method in brief: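 Mobility-shift readout: phosphorylated and unphosphorylated fluorescent peptide (1.5 μM) resolved by electrophoresis after a 60 min room-temperature reaction stopped with EDTA. Reaction holds 0.6 nM IRAK4, 500 μM ATP and 1.6% DMSO in HEPES pH 7.2/MgCl2/Brij 35/DTT buffer; percent inhibition set against vehicle and no-enzyme controls.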

[2] = Caco-2 Permeability Assay; type: in vitro ADME; conditions: human, Caco-2, test compound 3 μM
Procedure: Caco-2 Permeability Assay
Thirteen to 27 days prior to assay, Caco-2 cells were seeded onto collagen-coated polycarbonate filter membranes in 24-well transwell plates at a density of 1.45×10^5 cells/cm^2, approximately 4.8×10^4 cells per well. The cells were grown in a culture medium consisting of DMEM supplemented with 10% fetal bovine serum, 10 mM HEPES, 1% nonessential amino acids, 2 mM L-glutamine, 100 U/mL penicillin-G, and 100 μg/mL streptomycin. The culture medium was replaced every 3 days and the cells were maintained at 37° C. in a 95% relative humidity and 5% CO2 atmosphere. The cells were evaluated for tight junction formation just prior to assay. The test compound was solubilized to 10 mM in 100% DMSO and diluted to 3 μM in assay buffer. Permeability studies were initiated by adding 200 μL assay buffer plus/minus compound to the apical transwell compartment and 600 μL assay buffer plus/minus compound to the basolateral compartment of the 24-well transwell low-binding cluster plate. For apical-to-basolateral (A to B) permeability (absorptive direction), buffer containing compound was placed in the apical compartment (donor wells), while buffer alone was placed in the corresponding basolateral compartments (receiver wells). For basolateral-to-apical (B to A) permeability (secretive direction), buffer containing compound was placed in the basolateral compartment (donor wells), while buffer alone was placed in the corresponding apical compartments (receiver wells). Transwells were then incubated for 2 hours at 37° C. in a 95% relative humidity and 5% CO2 atmosphere with gentle agitation. Following incubation, 100 μL was removed from each apical and basolateral compartment and transferred to 96-well low binding plates that had been previously loaded with 100 μL/well of acetonitrile containing 250 nM propranolol, 250 nM diclofenac, and 500 nM tolbutamide as internal standards. The samples were subsequently analyzed by LC-MS/MS to determine concentrations of compound.

[3] = tested on: Human whole blood stimulated with a TLR2 agonist (lipoteichoic acid), IL-6 levels; assay: IRAK4 Whole Blood Assay; type: cell-based; conditions: lipoteichoic acid 10 μg/mL
Method in brief: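 ACD-A-anticoagulated human whole blood was preincubated with compounds for 60 min at 37 °C under 5% CO2. It was then stimulated with 10 μg/mL lipoteichoic acid (final) in RPMI for 5 h. IL-6 in plasma supernatants was measured by flow cytometry bead assay.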

IRAK4, sequence (Q9NWZ3 whole entry, species assumed): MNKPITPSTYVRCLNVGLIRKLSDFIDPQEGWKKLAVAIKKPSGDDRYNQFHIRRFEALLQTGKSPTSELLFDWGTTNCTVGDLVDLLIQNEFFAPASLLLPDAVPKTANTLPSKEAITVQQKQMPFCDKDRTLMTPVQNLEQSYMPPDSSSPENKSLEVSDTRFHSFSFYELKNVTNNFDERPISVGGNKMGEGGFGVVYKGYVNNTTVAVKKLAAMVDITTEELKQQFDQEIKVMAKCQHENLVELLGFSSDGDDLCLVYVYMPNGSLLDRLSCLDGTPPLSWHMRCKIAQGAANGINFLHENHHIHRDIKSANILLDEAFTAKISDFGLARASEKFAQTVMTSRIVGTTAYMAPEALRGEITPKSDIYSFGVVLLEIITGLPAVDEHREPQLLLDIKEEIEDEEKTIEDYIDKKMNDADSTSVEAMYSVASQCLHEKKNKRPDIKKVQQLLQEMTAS

SMILES	IC50 [1] [µM]	Papp at 2 h, 3 µM [2] [nm/s]	EC50 ([3]; Homo sapiens) [µM]	EC50 [3] [µM]
COC(=O)N1CC[C@@H](n2cc(-c3cnc(-n4ncc5cc(C#N)cnc54)cc3NC3CC3)nn2)[C@](C)(O)C1 (relative stereo) [Example 208, (trans)-methyl 4-(4-(6-(5-cyano-1H-pyrazolo[3,4-b]pyridin-1-yl)-4-(cyclopropylamino)pyridin-3-yl)-1H-1,2,3-triazol-1-yl)-3-hydroxy-3-methylpiperidine-1-carboxylate]	0.006	26	1.51	–
CC(C)Nc1cc(-n2ncc3cc(C#N)cnc32)ncc1-c1cn([C@@H]2CCNC[C@@H]2F)nn1 (relative stereo) [Example 209, 1-(5-(1-((cis)-3-fluoropiperidin-4-yl)-1H-1,2,3-triazol-4-yl)-4-(isopropylamino)pyridin-2-yl)-1H-pyrazolo[3,4-b]pyridine-5-carbonitrile]	–	24	0.49	–
CC(C)Nc1cc(-n2ncc3cc(C#N)cnc32)ncc1-c1cn(CC2CC2(F)F)nn1 (single isomer, unassigned) [Example 31, 1-(5-(1-((2,2-difluorocyclopropyl)methyl)-1H-1,2,3-triazol-4-yl)-4-(isopropylamino)pyridin-2-yl)-1H-pyrazolo[3,4-b]pyridine-5-carbonitrile]	0.007	159	–	1.97
CC(C)Nc1cc(-n2ncc3cc(C#N)cnc32)ncc1-c1cn([C@H](C)[C@H](C)O)nn1 (single isomer, unassigned) [Example 88]	0.005	71	1.29	–
CC(C)Nc1cc(-n2ncc3cc(C#N)cnc32)ncc1-c1cn([C@@H](C)[C@H](C)O)nn1 (single isomer, unassigned) [Example 90]	0.004	101	–	0.17
CCC(C)(O)Cn1cc(-c2cnc(-n3ncc4cc(C#N)cnc43)cc2NC(C)C)nn1 (single isomer, unassigned) [Example 92, 1-(5-(1-(2-hydroxy-2-methylbutyl)-1H-1,2,3-triazol-4-yl)-4-(isopropylamino)pyridin-2-yl)-1H-pyrazolo[3,4-b]pyridine-5-carbonitrile]	0.011	124	–	1.12
CC(=O)N1CC[C@@H](n2cc(-c3cnc(-n4ncc5cc(C#N)cnc54)cc3NC(C)C)nn2)[C@H](O)C1 (single isomer, unassigned) [Example 197, 1-(5-(1-((trans)-1-acetyl-3-hydroxypiperidin-4-yl)-1H-1,2,3-triazol-4-yl)-4-(isopropylamino)pyridin-2-yl)-1H-pyrazolo[3,4-b]pyridine-5-carbonitrile]	0.003	< 15	0.17	–
CC(=O)N1CC[C@@H](n2cc(-c3cnc(-n4ncc5cc(C#N)cnc54)cc3NC(C)C)nn2)[C@H](O)C1 (single isomer, unassigned) [Example 203]	0.004	< 15	0.72	–
CC(C)Nc1cc(-n2ncc3cc(C#N)cnc32)ncc1-c1cn([C@@H]2CCN(C(=O)C(C)(C)C)C[C@H]2O)nn1 (single isomer, unassigned) [Example 206]	0.003	20	1.9	–
CC(C)Nc1cc(-n2ncc3cc(C#N)cnc32)ncc1-c1cn([C@@H]2CCN(S(C)(=O)=O)C[C@H]2F)nn1 (single isomer, unassigned) [Example 210, 1-(5-(1-((trans)-3-fluoro-1-(methylsulfonyl)piperidin-4-yl)-1H-1,2,3-triazol-4-yl)-4-(isopropylamino)pyridin-2-yl)-1H-pyrazolo[3,4-b]pyridine-5-carbonitrile]	0.002	43	0.51	–
CC(F)Cc1cn(-c2cnc(-n3ncc4cc(C#N)cnc43)cc2NC(C)C)nn1 (single isomer, unassigned) [Example 289, 1-(5-(4-(2-fluoropropyl)-1H-1,2,3-triazol-1-yl)-4-(isopropylamino)pyridin-2-yl)-1H-pyrazolo [3,4-b]pyridine-5-carbonitrile]	0.006	474	0.2	–
COC(=O)NCC1CC(c2cnc(-n3ncc4cc(C#N)cnc43)cc2NC(C)C)=NO1 (single isomer, unassigned) [Example 436, Methyl ((3-(6-(5-cyano-1H-pyrazolo[3,4-b]pyridin-1-yl)-4-(isopropylamino)pyridin-3-yl)-4,5-dihydroisoxazol-5-yl)methyl)carbamate]	–	319	0.29	–
CC(C)Nc1cc(-n2ncc3cc(C#N)cnc32)ncc1-c1cn(C2CN(CC(F)F)C2)nn1 [Example 153]	–	179	0.27	–
CCNC1CCC(c2cn(-c3cnc(-n4ncc5cc(C#N)cnc54)cc3NC(C)C)nn2)CC1 (centres unmarked) [Example 356, 1-(5-(4-((1s,4s)-4-(ethylamino)cyclohexyl)-1H-1,2,3-triazol-1-yl)-4-(isopropylamino)pyridin-2-yl)-1H-pyrazolo[3,4-b]pyridine-5-carbonitrile]	–	< 15	0.27	–
CC(C)(O)CCc1cn(-c2cnc(-n3ncc4cc(C#N)cnc43)cc2NC2COC2)nn1 [Example 359, 1-(5-(4-(3-hydroxy-3-methylbutyl)-1H-1,2,3-triazol-1-yl)-4-(oxetan-3-ylamino)pyridin-2-yl)-1H-pyrazolo[3,4-b]pyridine-5-carbonitrile]	–	< 15	0.22	–
CC(C)Nc1cc(-n2ncc3cc(C#N)cnc32)ncc1-n1cc(C2CCN(C(=O)CC(C)(C)O)CC2)nn1 [Example 360, 1-(5-(4-(1-(3-hydroxy-3-methylbutanoyl)piperidin-4-yl)-1H-1,2,3-triazol-1-yl)-4-(isopropylamino)pyridin-2-yl)-1H-pyrazolo[3,4-b]pyridine-5-carbonitrile]	–	36	0.31	–
CC(C)(O)CCc1cn(-c2cnc(-n3ncc4cc(C#N)cnc43)cc2NC2CCC(F)CC2)nn1 (centres unmarked) [Example 374, 1-(4-(((1r,4r)-4-fluorocyclohexyl)amino)-5-(4-(3-hydroxy-3-methylbutyl)-1H-1,2,3-triazol-1-yl)pyridin-2-yl)-1H-pyrazolo[3,4-b]pyridine-5-carbonitrile]	–	32	0.38	–
CC(=O)NC1CCC(c2cc(-c3cnc(-n4ncc5cc(C#N)cnc54)cc3NC(C)C)on2)CC1 (centres unmarked) [Example 410, N-((1s,4s)-4-(5-(6-(5-cyano-1H-pyrazolo[3,4-b]pyridin-1-yl)-4-(isopropylamino)pyridin-3-yl)isoxazol-3-yl)cyclohexyl)acetamide]	–	148	0.3	–
COC(=O)NC1CCC(c2cc(-c3cnc(-n4ncc5cc(C#N)cnc54)cc3NC(C)C)on2)CC1 (centres unmarked) [Example 411, methyl ((1s,4s)-4-(5-(6-(5-cyano-1H-pyrazolo[3,4-b]pyridin-1-yl)-4-(isopropylamino)pyridin-3-yl)isoxazol-3-yl)cyclohexyl)carbamate]	–	269	0.43	–
CC(C)Nc1cc(-n2ncc3cc(C#N)cnc32)ncc1-c1cc(CC(C)(C)O)on1 [Example 438, 1-(5-(5-(2-hydroxy-2-methylpropyl)isoxazol-3-yl)-4-(isopropylamino)pyridin-2-yl)-1H-pyrazolo[3,4-b]pyridine-5-carbonitrile]	–	273	0.23	–
